We go through one compound from BindingDB's records for doi:10.1021/jm00008a010 (1995).

Structures are written as SMILES.

This experiment can be described thus: In vitro binding affinity towards 5-hydroxytryptamine 1D receptor beta by using [3H]5-HT as radioligand.

For orientation: Ki means a dissociation constant, usually derived from enzyme kinetics or from competition with a known ligand. A high value points to a looser hold on the target.

On to `CCCNC1CCc2cccc(OS(=O)(=O)C(F)(F)F)c2C1` (stereo unspecified) [Trifluoro-methanesulfonic acid 7-propylamino-5,6,7,8-tetrahydro-naphthalen-1-yl ester], for which the inhibition constant (Ki) was determined as 169 nM.
